Where a SMILES comes first, the peptide text is derived from it. [ ]: non-standard residue; d: D form. αMeF = C[C@](N)(Cc1ccccc1)C(=O)O; αMeK = C[C@](N)(CCCCN)C(=O)O; Aib = CC(C)(N)C(=O)O
Key:
Type in all cases: cell-based
Settings in all cases: n = 2
hGluc-R = biological target: T1, hGluc-R (Homo sapiens, UniProt P47871); experiment: cAMP functional assay, cells expressing human glucagon receptor (primary assay)
T1 construct: expressed in transfected cells
Experimental: The biological activities/receptor potencies of the synthetic GLP-1 peptides described herein are suitably tested for biological activity, e.g., stimulation of one or more cellular receptor responses. Stable cell lines expressing human, mouse, rat, or dog GLP-1 receptor (GLP-1R), glucagon receptor (GCGR) or glucose-dependent insulinotropic peptide (gastric inhibitory polypeptide) receptor (GIPR) are generated in HEK293 cells or CHO cells by standard methods.
cAMP assays were performed using “assay buffer”: Assay Buffer: 0.1% BSA (Sigma #A3059) in HBSS (Sigma #H8264) with 25 mM HEPES, pH 7.4 and containing 0.5 mM IBMX (Sigma #17018).
Low protein binding 384-well plates (Greiner #781280) are used to perform eleven 1 in 5 serial dilutions of test samples which are made in assay buffer. All sample dilutions are made in duplicate.
A frozen cryo-vial of cells expressing the receptor of interest is thawed rapidly in a water-bath, transferred to pre-warmed assay buffer and spun at 240× g for 5 minutes. Cells are re-suspended in assay buffer at a batch-dependent optimized concentration (e.g. hGCGR cells at 2×10^5 cells/ml, hGLP-1R and hGIPR cells at 1×10^5 cells /ml).
From the dilution plate, a 5 μL replica is stamped onto a black shallow-well u-bottom 384-well plate (Corning #3676). To this, 5 μL cell suspension is added and the plates incubated at room temperature for 30 minutes.
cAMP levels are measured using a commercially available cAMP dynamic 2 HTRF kit (Cisbio, Cat #62AM4PEJ), following the two step protocol as per manufacturer's recommendations. In brief; anti-cAMP cryptate (donor fluorophore) and cAMP-d2 (acceptor fluorophore) are made up separately by diluting each 1/20 in conjugate & lysis buffer provided in the kit. 5 μL anti-cAMP cryptate is added to all wells of the assay plate, and 5 μL cAMP-d2 is added to all wells except non-specific binding (NSB) wells, to which conjugate and lysis buffer are added. Plates are incubated at room temperature for one hour and then read on an Envision (Perkin Elmer) using excitation wavelength of 320 nm and emission wavelengths of 620 nm & 665 nm. EC50 values of the synthetic peptides determined in cAMP assays are then determined.

hGLP-1R = biological target: T2, hGLP-1R (Homo sapiens, UniProt P43220); experiment: cAMP functional assay, cells expressing human GLP-1 receptor (primary assay)
T2 construct: expressed in transfected cells

hGIP-R = biological target: T3, hGIP-R (Homo sapiens, UniProt P48546); experiment: cAMP functional assay, cells expressing human GIP receptor (primary assay)
T3 construct: expressed in transfected cells
T3 sequence (P48546 22-466): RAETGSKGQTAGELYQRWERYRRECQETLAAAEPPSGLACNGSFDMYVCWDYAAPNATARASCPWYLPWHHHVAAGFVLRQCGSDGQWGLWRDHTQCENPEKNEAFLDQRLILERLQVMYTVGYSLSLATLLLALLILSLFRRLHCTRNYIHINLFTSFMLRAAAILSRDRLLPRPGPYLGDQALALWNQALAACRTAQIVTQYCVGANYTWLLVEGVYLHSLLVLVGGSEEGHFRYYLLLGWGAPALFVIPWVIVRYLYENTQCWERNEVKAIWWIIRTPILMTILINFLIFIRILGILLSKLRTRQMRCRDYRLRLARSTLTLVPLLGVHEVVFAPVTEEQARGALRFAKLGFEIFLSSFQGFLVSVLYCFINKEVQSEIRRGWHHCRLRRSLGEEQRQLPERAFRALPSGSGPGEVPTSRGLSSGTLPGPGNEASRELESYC

T2 sequence (P43220 24-463): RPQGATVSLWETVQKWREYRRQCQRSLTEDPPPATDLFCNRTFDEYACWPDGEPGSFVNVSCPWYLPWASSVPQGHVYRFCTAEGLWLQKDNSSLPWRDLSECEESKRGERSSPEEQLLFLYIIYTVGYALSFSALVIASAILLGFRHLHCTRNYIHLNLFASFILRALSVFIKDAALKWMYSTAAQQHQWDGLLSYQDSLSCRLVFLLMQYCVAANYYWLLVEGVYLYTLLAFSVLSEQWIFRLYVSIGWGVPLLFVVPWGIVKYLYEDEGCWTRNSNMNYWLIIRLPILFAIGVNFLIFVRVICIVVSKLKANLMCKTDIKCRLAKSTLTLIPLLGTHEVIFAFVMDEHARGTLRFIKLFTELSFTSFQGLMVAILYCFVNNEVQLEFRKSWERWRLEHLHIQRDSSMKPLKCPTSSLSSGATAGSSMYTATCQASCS
T1 sequence (P47871 26-477): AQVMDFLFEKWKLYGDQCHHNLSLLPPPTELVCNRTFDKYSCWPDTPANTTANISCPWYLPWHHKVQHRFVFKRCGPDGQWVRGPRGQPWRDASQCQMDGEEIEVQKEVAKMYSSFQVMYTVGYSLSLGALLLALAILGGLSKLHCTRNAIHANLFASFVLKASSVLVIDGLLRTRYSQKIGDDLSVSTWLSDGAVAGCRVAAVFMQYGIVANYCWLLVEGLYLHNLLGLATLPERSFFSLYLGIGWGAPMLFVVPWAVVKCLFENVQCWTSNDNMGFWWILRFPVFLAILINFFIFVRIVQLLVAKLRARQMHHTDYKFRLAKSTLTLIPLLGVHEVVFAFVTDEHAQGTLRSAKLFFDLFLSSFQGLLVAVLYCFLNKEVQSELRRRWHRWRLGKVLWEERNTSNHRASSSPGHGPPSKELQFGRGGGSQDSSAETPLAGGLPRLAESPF

Structure (SMILES)	EC50 (hGluc-R) [nM]	EC50 (hGLP-1R) [nM]	EC50 (hGIP-R) [nM]
CC[C@H](C)[C@H](NC(=O)[C@H](Cc1ccccc1)NC(=O)[C@H](CCC(=O)O)NC(=O)C(C)(C)NC(=O)[C@H](C)NC(=O)[C@H](C)NC(=O)[C@H](CCC(N)=O)NC(=O)CNC(=O)[C@H](CCC(=O)O)NC(=O)[C@H](CC(C)C)NC(=O)[C@H](Cc1ccc(O)cc1)NC(=O)[C@H](CO)NC(=O)[C@H](CO)NC(=O)[C@@H](NC(=O)[C@H](CC(=O)O)NC(=O)[C@H](CO)NC(=O)[C@@H](NC(=O)[C@H](Cc1ccccc1)NC(=O)[C@@H](NC(=O)CNC(=O)[C@H](CCC(=O)O)NC(=O)C(C)(C)NC(=O)[C@@H](N)Cc1c[nH]cn1)[C@@H](C)O)[C@@H](C)O)C(C)C)C(=O)N[C@@H](C)C(=O)N[C@@H](Cc1c[nH]c2ccccc12)C(=O)N[C@@H](CC(C)C)C(=O)N[C@H](C(=O)N[C@@H](CCCCN)C(=O)NCC(=O)N[C@@H](CCCNC(=N)N)C(N)=O)C(C)C [SEQ ID NO: 21, H-(Aib)^2-EGT^5 FTSDV^10 SSYLE^15 GQAA-(Aib)^26 EFIAW^25 LVKGR^30]	76.5	0.02	76.5
CC[C@H](C)[C@H](NC(=O)[C@H](Cc1ccccc1)NC(=O)[C@H](CCC(=O)O)NC(=O)[C@H](CCCCN)NC(=O)[C@H](C)NC(=O)[C@H](C)NC(=O)[C@H](CCC(N)=O)NC(=O)CNC(=O)[C@H](CCC(=O)O)NC(=O)[C@H](CC(C)C)NC(=O)[C@H](Cc1ccc(O)cc1)NC(=O)[C@H](CO)NC(=O)[C@H](CO)NC(=O)[C@@H](NC(=O)[C@H](CC(=O)O)NC(=O)[C@H](CO)NC(=O)[C@@H](NC(=O)[C@H](Cc1ccccc1)NC(=O)[C@@H](NC(=O)CNC(=O)[C@H](CCC(=O)O)NC(=O)C(C)(C)NC(=O)[C@@H](N)Cc1c[nH]cn1)[C@@H](C)O)[C@@H](C)O)C(C)C)C(=O)N[C@@H](C)C(=O)N[C@@H](Cc1c[nH]c2ccccc12)C(=O)N[C@@H](CC(C)C)C(=O)N[C@H](C(=O)N[C@@](C)(CCCCN)C(=O)NCC(=O)N[C@@H](CCCNC(=N)N)C(N)=O)C(C)C [SEQ ID NO: 22, H-(Aib)^2-EGT^5 FTSDV^10 SSYLE^15 GQAAK^20 EFIAW^25 LV-(α-MeK)^28-GR^30]	91.4	0.019	91.4
CC[C@H](C)[C@H](NC(=O)[C@H](Cc1ccccc1)NC(=O)[C@H](CCC(=O)O)NC(=O)[C@H](CCCCN)NC(=O)[C@H](C)NC(=O)[C@H](C)NC(=O)[C@H](CCC(N)=O)NC(=O)CNC(=O)[C@H](CCC(=O)O)NC(=O)[C@H](CC(C)C)NC(=O)[C@H](Cc1ccc(O)cc1)NC(=O)[C@H](CO)NC(=O)[C@H](CO)NC(=O)[C@@H](NC(=O)[C@H](CC(=O)O)NC(=O)[C@H](CO)NC(=O)[C@@H](NC(=O)[C@H](Cc1ccccc1)NC(=O)[C@@H](NC(=O)CNC(=O)[C@H](CCC(=O)O)NC(=O)C(C)(C)NC(=O)[C@@H](N)Cc1c[nH]cn1)[C@@H](C)O)[C@@H](C)O)C(C)C)C(=O)N[C@@H](C)C(=O)N[C@@H](Cc1c[nH]c2ccccc12)C(=O)N[C@@H](CC(C)C)C(=O)N[C@H](C(=O)NC(C)(C)C(=O)NCC(=O)N[C@@H](CCCNC(=N)N)C(N)=O)C(C)C [SEQ ID NO: 23, H-(Aib)^2-EGT^5 FTSDV^10 SSYLE^15 GQAAK^20 EFIAW^25 LV-(Aib)^28-GR^30]	103	0.0279	105

Results, then the compound that gave them:

EC50 (hGluc-R) [nM]	EC50 (hGLP-1R) [nM]	EC50 (hGIP-R) [nM]	Structure (SMILES)
111	0.021	111	CC[C@H](C)[C@H](NC(=O)[C@H](Cc1ccccc1)NC(=O)[C@H](CCC(=O)O)NC(=O)[C@H](CCCCN)NC(=O)[C@H](C)NC(=O)[C@H](C)NC(=O)[C@H](CCC(N)=O)NC(=O)CNC(=O)[C@H](CCC(=O)O)NC(=O)[C@H](CC(C)C)NC(=O)[C@H](Cc1ccc(O)cc1)NC(=O)[C@H](CO)NC(=O)[C@H](CO)NC(=O)[C@@H](NC(=O)[C@H](CC(=O)O)NC(=O)[C@H](CO)NC(=O)[C@@H](NC(=O)[C@H](Cc1ccccc1)NC(=O)[C@@H](NC(=O)CNC(=O)[C@H](CCC(=O)O)NC(=O)C(C)(C)NC(=O)[C@@H](N)Cc1c[nH]cn1)[C@@H](C)O)[C@@H](C)O)C(C)C)C(=O)N[C@@H](C)C(=O)N[C@@H](Cc1c[nH]c2ccccc12)C(=O)N[C@@H](CC(C)C)C(=O)N[C@H](C(=O)N[C@@H](CCCCN)C(=O)NCC(=O)N[C@@](C)(CCCNC(=N)N)C(N)=O)C(C)C [SEQ ID NO: 24, H-(Aib)^2-EGT^5 FTSDV^10 SSYLE^15 GQAAK^20 EFIAW^25 LVKG-(α-MeR)^30]
96.4	0.0277	96.4	CC[C@H](C)[C@H](NC(=O)[C@H](Cc1ccccc1)NC(=O)[C@H](CCC(=O)O)NC(=O)[C@H](CCCCN)NC(=O)[C@H](C)NC(=O)[C@H](C)NC(=O)[C@H](CCC(N)=O)NC(=O)CNC(=O)[C@H](CCC(=O)O)NC(=O)[C@H](CC(C)C)NC(=O)[C@H](Cc1ccc(O)cc1)NC(=O)[C@H](CO)NC(=O)[C@H](CO)NC(=O)[C@@H](NC(=O)[C@H](CC(=O)O)NC(=O)[C@H](CO)NC(=O)[C@@H](NC(=O)[C@H](Cc1ccccc1)NC(=O)[C@@H](NC(=O)CNC(=O)[C@H](CCC(=O)O)NC(=O)C(C)(C)NC(=O)[C@@H](N)Cc1c[nH]cn1)[C@@H](C)O)[C@@H](C)O)C(C)C)C(=O)N[C@@H](C)C(=O)N[C@@H](Cc1c[nH]c2ccccc12)C(=O)N[C@@H](CC(C)C)C(=O)N[C@H](C(=O)N[C@@H](CCCCN)C(=O)NCC(=O)NC(C)(C)C(N)=O)C(C)C [SEQ ID NO: 25, H-(Aib)^2-EGT^5 FTSDV^10 SSYLE^15 GQAAK^20 EFIAW^25 LVKG-(Aib)^30]
104	0.00985	104	CC[C@H](C)[C@H](NC(=O)[C@](C)(Cc1ccccc1)NC(=O)[C@H](CCC(=O)O)NC(=O)[C@](C)(CCCCN)NC(=O)[C@H](C)NC(=O)[C@H](C)NC(=O)[C@H](CCC(N)=O)NC(=O)CNC(=O)[C@H](CCC(=O)O)NC(=O)[C@H](CC(C)C)NC(=O)[C@](C)(Cc1ccccc1)NC(=O)[C@H](CO)NC(=O)[C@H](CO)NC(=O)[C@@H](NC(=O)[C@H](CC(=O)O)NC(=O)[C@H](CO)NC(=O)[C@@H](NC(=O)[C@](C)(Cc1ccccc1)NC(=O)[C@H](CO)NC(=O)CNC(=O)[C@H](CCC(=O)O)NC(=O)C(C)(C)NC(=O)[C@@H](N)Cc1c[nH]cn1)[C@@H](C)O)C(C)C)C(=O)N[C@@H](C)C(=O)N[C@@](C)(Cc1ccccc1)C(=O)N[C@@H](CC(C)C)C(=O)N[C@H](C(=O)N[C@@H](CCCCN)C(=O)NCC(=O)NCC(N)=O)C(C)C [SEQ ID NO: 44, H-(Aib)^2-EG-(S)^5-(α-MeF)^6-TSDV^10 SS-(α-MeF)^13-LE^15 GQAA-(α-MeK)^20 E-(α-MeF)^22-IA-(α-MeF)^25 LVKG-(G)^30] (H-H[Aib]EGS[αMeF]TSDVSS[αMeF]LEGQAA[αMeK]E[αMeF]IA[αMeF]LVKGG-NH2)
